From US20070191363A1, “Heteroalkyl-substituted biphenyl-4-carboxylic acid arylamide analogues” (Neurogen Corporation, priority 2004, published 2007)

How the values were obtained:
human capsaicin receptor [1] = target: T1, human capsaicin receptor (Homo sapiens, UniProt Q8NER1); assay: Calcium mobilization assay, determination of antagonist activity; assay type: cell-based; settings: 50% decrease in the fluorescence response of cells exposed to capsaicin; cells expressing human capsaicin receptor
T1 construct: expressed in transfected cells
Protocol: A cDNA encoding full length human capsaicin receptor (SEQ ID NO:1, 2 or 3 of U.S. Pat. No. 6,482,611) is subcloned in the plasmid pBK-CMV (Stratagene, La Jolla, Calif.) for recombinant expression in mammalian cells.
Human embryonic kidney (HEK293) cells are transfected with the pBK-CMV expression construct encoding the full length human capsaicin receptor using standard methods. The transfected cells are selected for two weeks in media containing G418 (400 μg/ml) to obtain a pool of stably transfected cells. Independent clones are isolated from this pool by limiting dilution to obtain clonal stable cell lines for use in subsequent experiments.
This Example illustrates a representative calcium mobilization assay for use in monitoring the response of cells expressing capsaicin receptor to capsaicin and other vanilloid ligands of the capsaicin receptor, as well as for evaluating test compounds for agonist and antagonist activity.
(§1) Cells transfected with expression plasmids (as described in Example 3) and thereby expressing human capsaicin receptor are seeded and grown to 70-90% confluency in FALCON black-walled, clear-bottomed 96-well plates (#3904, BECTON-DICKINSON, Franklin Lakes, N.J.). The culture medium is emptied from the 96 well plates and FLUO-3 AM calcium sensitive dye (Molecular Probes, Eugene, Oreg.) is added to each well (dye solution: 1 mg FLUO-3 AM, 440 μL DMSO and 440 μl 20% pluronic acid in DMSO, diluted 1:250 in Krebs-Ringer HEPES (KRH) buffer (25 mM HEPES, 5 mM KCl, 0.96 mM NaH2PO4, 1 mM MgSO4, 2 mM CaCl2, 5 mM glucose, 1 mM probenecid, pH 7.4), 50 μl diluted solution per well). Plates are covered with aluminum foil and incubated at 37° C. for 1-2 hours in an environment containing 5% CO2. After the incubation, the dye is emptied from the plates, and the cells are washed once with KRH buffer, and resuspended in KRH buffer.
To measure the ability of a test compound to agonize or antagonize a calcium mobilization response in cells expressing capsaicin receptors to capsaicin or other vanilloid agonist, the EC50 of the agonist capsaicin is first determined. An additional 20 μl of KRH buffer and 1 μl DMSO is added to each well of cells, prepared as described above. 100 μl capsaicin in KRH buffer is automatically transferred by the FLIPR instrument to each well. Capsaicin-induced calcium mobilization is monitored using either FLUOROSKAN ASCENT (Labsystems; Franklin, Mass.) or FLIPR (fluorometric imaging plate reader system; Molecular Devices, Sunnyvale, Calif.) instruments. Data obtained between 30 and 60 seconds after agonist application are used to generate an 8-point concentration response curve, with final capsaicin concentrations of 1 nM to 3 μM. […] software (Synergy Software, Reading, Pa.) is used to fit the data to the equation: y=a*(1/(1+(b/x)c)) to determine the 50% excitatory concentration (EC50) for the response. In this equation, y is the maximum fluorescence signal, x is the concentration of the agonist or antagonist (in this case, capsaicin), a is the Emax, b corresponds to the EC50 value and c is the Hill coefficient. Determination of Agonist Activity
Test compounds are dissolved in DMSO, diluted in 20 μl KRH buffer so that the final concentration of test compounds in the assay well is between 1 μM and 5 μM, and added to cells prepared as described above. The 96 well plates containing prepared cells and test compounds are incubated in the dark, at room temperature for 0.5 to 6 hours. It is important that the incubation not continue beyond 6 hours. Just prior to determining the fluorescence response, 100 μl capsaicin in KRH buffer at twice the EC50 concentration determined as described above is automatically added by the FLIPR instrument to each well of the 96 well plate for a final sample volume of 200 μl and a final capsaicin concentration equal to the EC50. The final concentration of test compounds in the assay wells is between 1 μM and 5 μM.

human capsaicin receptor [2] = target: T1, human capsaicin receptor; assay: Calcium mobilization assay, capsaicin agonist response; assay type: cell-based; settings: capsaicin positive control, calcium mobilization in cells expressing human capsaicin receptor; read-out: approximate EC90 concentration
Protocol: as §1, with “Plates are covered with aluminum foil and incubated at 37° C. for 1-2 hours in an environment containing 5% CO2. After the incubation, the dye is emptied from the plates, and the cells are washed once with KRH buffer, and resuspended in KRH buffer.” left out
To measure the ability of a test compound to agonize or antagonize a calcium mobilization response in cells expressing capsaicin receptors to capsaicin or other vanilloid agonist, the EC50 of the agonist capsaicin is first determined. […] Capsaicin-induced calcium mobilization is monitored using either FLUOROSKAN ASCENT (Labsystems; Franklin, Mass.) or FLIPR (fluorometric imaging plate reader system; Molecular Devices, Sunnyvale, Calif.) instruments. […] In this equation, y is the maximum fluorescence signal, x is the concentration of the agonist or antagonist (in this case, capsaicin), a is the Emax, b corresponds to the EC50 value and c is the Hill coefficient. […]

VR = settings: binds to VR with no more than moderate affinity; typical value; cited from earlier work

T1 sequence (Q8NER1 whole entry): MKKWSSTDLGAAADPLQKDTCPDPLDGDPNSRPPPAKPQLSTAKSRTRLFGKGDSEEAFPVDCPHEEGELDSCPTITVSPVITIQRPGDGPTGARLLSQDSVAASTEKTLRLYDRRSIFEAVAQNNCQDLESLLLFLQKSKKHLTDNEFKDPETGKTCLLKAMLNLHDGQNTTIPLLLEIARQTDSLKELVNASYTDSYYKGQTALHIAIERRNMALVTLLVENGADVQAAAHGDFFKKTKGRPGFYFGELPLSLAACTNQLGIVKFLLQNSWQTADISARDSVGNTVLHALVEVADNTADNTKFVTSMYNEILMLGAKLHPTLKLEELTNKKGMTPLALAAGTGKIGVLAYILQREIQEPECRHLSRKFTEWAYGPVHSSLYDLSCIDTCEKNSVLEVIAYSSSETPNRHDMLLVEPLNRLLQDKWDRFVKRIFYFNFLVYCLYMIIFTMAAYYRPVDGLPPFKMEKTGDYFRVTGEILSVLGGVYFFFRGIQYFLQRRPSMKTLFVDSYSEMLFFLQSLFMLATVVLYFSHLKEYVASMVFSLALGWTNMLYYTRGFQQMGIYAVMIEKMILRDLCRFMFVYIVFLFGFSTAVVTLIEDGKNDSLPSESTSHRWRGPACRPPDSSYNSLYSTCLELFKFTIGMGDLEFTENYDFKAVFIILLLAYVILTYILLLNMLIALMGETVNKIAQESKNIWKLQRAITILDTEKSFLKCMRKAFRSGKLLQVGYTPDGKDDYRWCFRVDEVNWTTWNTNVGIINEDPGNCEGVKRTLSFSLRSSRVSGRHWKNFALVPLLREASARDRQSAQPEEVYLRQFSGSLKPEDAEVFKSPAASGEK

Row | Compound | IC50 (human capsaicin receptor [1]) | further results
1 | COCCN(CCOC)CCOc1cc(NC(=O)c2ccc(-c3ncccc3C(F)(F)F)cc2)ccc1C(C)(C)C [Compound 5, N-(3-{2-[Bis-(2-methoxy-ethyl)-amino]-ethoxy}-4-tert-butyl-phenyl)-4-(3-trifluoromethyl-pyridin-2-yl)-benzamide] | ≤ 1000 nM | 
2 | CC(C)(C)c1ccc(NC(=O)c2ccc(-c3ncccc3C(F)(F)F)cc2O)cc1OCCO [Compound 7, N-[4-tert-Butyl-3-(2-hydroxy-ethoxy)-phenyl]-2-hydroxy-4-(3-trifluoromethyl-pyridin-2-yl)-benzamide] | ≤ 1000 nM | 
3 | C[C@@H]1CN(CCOc2cc(NC(=O)c3ccc(-c4ncccc4C(F)(F)F)cc3O)ccc2C(C)(C)C)C[C@H](C)O1 [Compound 8, N-{4-tert-Butyl-3-[2-(2,6-dimethyl-morpholin-4-yl)-ethoxy]-phenyl}-2-hydroxy-4-(3-trifluoromethyl-pyridin-2-yl)-benzamide (cis)] | ≤ 1000 nM | 
4 | COc1cc(CNC(=O)CCCC/C=C/C(C)C)ccc1O [capsaicin] |  | EC90 (human capsaicin receptor [2]): ~100 nM
5 | Cl.Cl.Cl.Cl.Cl.Cl.N.N.N.N.N.N.N.N.N.N.N.N.N.N.[O-2].[O-2].[Ru+3].[Ru+3].[Ru+4] [ruthenium red] |  | Ki (VR): ≥ 140000 nM

Continued, in another order:

Row | IC50 (human capsaicin receptor [1]) | Compound | further results
6 | ≤ 1000 nM | CC(C)(C)c1ccc(NC(=O)c2ccc(-c3ncccc3C(F)(F)F)cc2)cc1OCCO [Compound 1, N-[4-tert-Butyl-3-(2-hydroxy-ethoxy)-phenyl]-4-(3-trifluoromethyl-pyridin-2-yl)-benzamide] | 
7 | ≤ 1000 nM | CC(C)(C)c1ccc(NC(=O)c2ccc(-c3ncccc3C(F)(F)F)cc2)cc1OCCN1CCOCC1 [Compound 2, N-[4-tert-Butyl-3-(2-morpholin-4-yl-ethoxy)-phenyl]-4-(3-trifluoromethyl-pyridin-2-yl)-benzamide] | 
8 | ≤ 1000 nM | C[C@@H]1CN(CCOc2cc(NC(=O)c3ccc(-c4ncccc4C(F)(F)F)cc3)ccc2C(C)(C)C)C[C@H](C)O1 [Compound 3, N-{4-tert-Butyl-3-[2-(2,6-dimethyl-morpholin-4-yl)-ethoxy]-phenyl}-4-(3-trifluoromethyl-pyridin-2-yl)-benzamide (cis)] | 
9 | ≤ 1000 nM | CC(C)(C)c1ccc(NC(=O)c2ccc(-c3ncccc3C(F)(F)F)cc2)cc1OCCN1CCCCC1 [Compound 4, N-[4-tert-Butyl-3-(2-piperidin-1-yl-ethoxy)-phenyl]-4-(3-trifluoromethyl-pyridin-2-yl)-benzamide] | 
10 | ≤ 1000 nM | CC1(C)CCCN(CCOc2cc(NC(=O)c3ccc(-c4ncccc4C(F)(F)F)cc3)ccc2C(C)(C)C)C1 [Compound 6, N-{4-tert-Butyl-3-[2-(3,3-dimethyl-piperidin-1-yl)-ethoxy]-phenyl}-4-(3-trifluoromethyl-pyridin-2-yl)-benzamide] | 
11 | ≤ 1000 nM | CC(C)(C)c1ccc(NC(=O)c2ccc(-c3ncccc3C(F)(F)F)cc2O)cc1OCCN1CCCCC1 [Compound 9, N-[4-tert-Butyl-3-(2-piperidin-1-yl-ethoxy)-phenyl]-2-hydroxy-4-(3-trifluoromethyl-pyridin-2-yl)-benzamide] | 
